How the values were obtained:
plants = settings: previous studies; cited from earlier work
Arabidopsis thaliana = test: Growth of plants on plates containing isoxaben; type: in vivo; settings: 2 nM isoxaben in plates
Procedure: Studies with a plant (Arabidopsis thaliana) expressing a CESA-1 with a A903V mutation (“qxr” or “ags”) have shown significant reorganization of the mutant cell wall. Feedback between the gene mutation and cell wall structure was determined by FTIR analysis of the polysaccharide fingerprint region. The following conclusions were ascertained; firstly, the qxr mutant has aberrant root hair formation, which can be observed using light microscopy and have been described for cell wall gene deletion alleles. The highly elongated cell shape of root hairs has been used as model to define molecular players in cell elongation and a plausible explanation for the altered root hair phenotype is consistent with a defect in cell wall structure. […] Next, the inventors explored whether treating qxr mutants with the cellulose inhibitor isoxaben at minute doses induced a synergistic effect.

Arabidopsis ixr mutants = settings: cited from earlier work

## CCC(C)(CC)c1cc(NC(=O)c2c(OC)cccc2OC)on1 [isoxaben, N-(3-[1-ethyl-1-methylpropyl]-5-isoxazolyl)-2,6,dimethoxybenzamide]
plants
  lethal dose: 5 nM
Arabidopsis thaliana; qxr (CESA-1 A903V)
  effect on qxr mutant plants: dramatically swollen organs
Arabidopsis thaliana; wild type
  effect on wild type plants (swollen organs): did not
Arabidopsis ixr mutants; ixr1-1 and ixr1-2 mutations
  resistance of mutants to the herbicide: high level of resistance
Arabidopsis ixr mutants; ixr1-1 homozygotes
  drug tolerance of ixr1-1 relative to wild type: approximately 300 times
Arabidopsis ixr mutants; ixr1-2 and ixr2-1, forward chemical genetics screen
  resistance of mutants to the cellulose synthesis inhibitor: conferring resistance
